Test results reported in patent publication US10858342B2, “Bicyclic imidazole derivatives useful for the treatment of renal diseases, cardiovascular diseases and fibrotic diseases” (Boehringer Ingelheim International GmbH, priority 2016, dated 2020).

What was measured:
Format in all cases: biochemical, cynomolgus monkey
[1] = molecular target: cortisol synthase (CYP11B1) (Macaca fascicularis, UniProt A0A2K5ULY1); experiment: Inhibition of cortisol synthesis (cynomolgus adrenal mitochondria, cortisol by mass spectrometry); conditions: read-out: Cortisol Inhibition IC50; 11-deoxycortisol substrate, 150 units CYP11B1
How it was run: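 Cynomolgus adrenal mitochondria (150 units CYP11B1 activity) incubated with 11-deoxycortisol in 100 mM potassium phosphate pH 7.4, 1% DMSO; reaction started with 1 mM NADPH, 90 min at 37° C, stopped with MeCN. Cortisol quantified by mass spectrometry; IC50 from 4-parameter logistic fit versus no-compound (100%) and no-NADPH (0%) controls.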

[2] = test system: aldosterone synthase (CYP11B2); experiment: Inhibition of aldosterone synthase (cynomolgus adrenal mitochondria, aldosterone by mass spectrometry); conditions: selectivity for aldosterone synthase inhibition over cortisol synthase (CYP11B1) inhibition, fold
How it was run: (§1)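 Cynomolgus adrenal mitochondria (50 units CYP11B2 activity) incubated with 2 μM corticosterone in 100 mM potassium phosphate pH 7.4, 1% DMSO; started with 1 mM NADPH, 90 min at 37 °C. Aldosterone quantified by mass spectrometry; no-NADPH blank as 0%, no-compound as 100% activity, across compound concentrations.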

[3] = molecular target: aldosterone synthase (CYP11B2) (Macaca fascicularis, UniProt A0A2K5UPL9); experiment: as above; conditions: 2 μM corticosterone substrate, 50 units CYP11B2, 90 min, 37° C.; read-out: Aldosterone Inhibition IC50
Chain of aldosterone synthase (CYP11B2) (Macaca fascicularis, UniProt A0A2K5UPL9) (A0A2K5UPL9 1-503): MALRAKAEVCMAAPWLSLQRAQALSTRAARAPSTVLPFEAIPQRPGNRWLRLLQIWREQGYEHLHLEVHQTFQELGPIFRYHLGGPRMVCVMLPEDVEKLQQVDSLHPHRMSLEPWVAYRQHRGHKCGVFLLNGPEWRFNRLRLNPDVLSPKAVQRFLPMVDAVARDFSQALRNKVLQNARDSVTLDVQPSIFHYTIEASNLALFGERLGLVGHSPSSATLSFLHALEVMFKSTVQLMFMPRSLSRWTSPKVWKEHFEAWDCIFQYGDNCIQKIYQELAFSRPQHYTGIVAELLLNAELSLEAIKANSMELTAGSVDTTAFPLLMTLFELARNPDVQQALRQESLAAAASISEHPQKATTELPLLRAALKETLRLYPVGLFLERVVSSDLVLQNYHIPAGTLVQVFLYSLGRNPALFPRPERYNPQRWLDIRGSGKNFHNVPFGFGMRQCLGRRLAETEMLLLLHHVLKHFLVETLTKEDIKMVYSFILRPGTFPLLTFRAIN
How it was run: as §1

CNC(=O)[C@H]1CC(=O)c2c(ncn2-c2ccc(C#N)c(Cl)c2)C1 [C-AEH, (R)-1-(3-Chloro-4-cyano-phenyl)-7-oxo-4,5,6,7-tetrahydro-1H-benzoimidazole-5-carboxylic acid methylamide]
IC50 [1]: > 30000 nM | Selectivity [2]: 526 | IC50 [3]: 57 nM
